pIC50: −log10 of the molar value.
target: T1, A3 human recombinant receptor (Homo sapiens, UniProt P0DMS8); assay: AequoScreen adenosine A3 receptor assay, antagonist mode (luminescence, against reference agonist IB-MECA); type: cell-based; conditions: AequoScreen cells expressing A3 human recombinant receptor and Gα16; inhibition of IB-MECA at EC80; duplicate determinations at 8 concentrations
T1 sequence (P0DMS8 1-318): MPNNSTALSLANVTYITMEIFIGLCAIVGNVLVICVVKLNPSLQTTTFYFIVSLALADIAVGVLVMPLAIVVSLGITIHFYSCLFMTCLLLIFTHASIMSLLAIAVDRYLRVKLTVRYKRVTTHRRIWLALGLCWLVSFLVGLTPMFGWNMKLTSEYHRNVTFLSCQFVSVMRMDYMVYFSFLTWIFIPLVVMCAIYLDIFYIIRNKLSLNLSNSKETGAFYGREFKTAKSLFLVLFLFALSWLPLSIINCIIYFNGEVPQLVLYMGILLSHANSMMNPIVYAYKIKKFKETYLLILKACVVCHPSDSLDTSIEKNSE
Protocol: AequoScreen™ (Euroscreen, Belgium) cell lines expressing the A3 human recombinant receptor and the promiscuous G protein Gα16 were used throughout the study. AequoScreen™ cells were cultured following recommended conditions for at least one week prior to the test. The day before the test, cells were harvested with PBS-EDTA, washed and re-suspended in BSA-DMEM12 (Dulbecco's Modified Eagles Medium—Ham's F12 with 0.1% BSA). Suspended cells were then incubated at room temperature with coelenterazine h overnight. For agonist and antagonist testing, 50 μl of the cell suspension were injected onto 50 μl of the test compound or control in 96-well plates, and the resulting emission of light measured for the determination of cell activation. After the first reading, and following an incubation time of 15-30 min, 100 μl of the reference agonist (IB-MECA) at a concentration equal to the EC80 of the day of the experiment were injected onto the cell suspension containing the test compounds. The resulting emission of light was measured for the determination of antagonistic effects. Light emission for agonist and antagonist tests was recorded using a Hamamatsu FDSS-6000 reader. For agonist data, percentages of activation were calculated on the basis of the activation (luminescence data) induced by the reference agonist at a saturating concentration (EC100). For antagonist data, percentages of inhibition were calculated on the basis of the activation (luminescence data) induced by the reference agonist at a concentration equal to the EC80. The test compounds were tested as duplicate determinations at 8 concentrations of 100, 10, 1, 0.1 μM and 10, 1, 0.1, and 0.01 nM for agonist activity and 50, 5, 0.5, 0.05 μM and 5, 0.5, 0.05, and 0.005 nM for antagonist activity. Dose-response data, EC50/IC50, from test compound was analyzed with XLfit (IDBS) software.
This assay may be used to determine the IC50 value for adenosine A3 antagonists according to the invention (see Example 42).

Row | SMILES | pIC50
1 | CNC(=O)[C@]12CO[C@@H]([C@H](n3cnc4c(NCc5cccc(I)c5)nc(Cl)nc43)O1)[C@@H]2O [SPN0175, (1R,3R,4R,7S)-(7-hydroxy-3-(N6-(3-iodobenzyl)-2-chloro-adenin-9-yl)-2,5-dioxabicyclo[2:2:1]hept-1-yl)-N-methylcarboxamide] | 6.41
2 | OC[C@@]12CO[C@@H]([C@H](n3cnc4c(NCc5cccc(I)c5)ncnc43)O1)[C@@H]2O [SPN0169, (1S,3R,4R,7S)-7-Hydroxy-1-hydroxymethyl-3-(N6-(3-iodobenzyl)-adenin-9-yl)-2,5-dioxabicyclo[2:2:1]heptane] | 6.81
3 | OC[C@@]12CO[C@@H]([C@H](n3cnc4c(NCc5cccc(I)c5)nc(Cl)nc43)O1)[C@@H]2O [SPN0174, (1S,3R,4R,7S)-7-Hydroxy-1-hydroxymethyl-3-(N6-(3-iodobenzyl)-2-chloro-adenin-9-yl)-2,5-dioxabicyclo[2:2:1]heptane] | 6.68
4 | CNC(=O)[C@@]12CO[C@@H]([C@H](n3cnc4c(NCc5cccc(Br)c5)ncnc43)O1)[C@@H]2O [SPN0186, (1R,3R,4R,7S)-(7-hydroxy-3-(N6-(3-bromobenzyl)-adenin-9-yl)-2,5-dioxabicyclo[2:2:1]hept-1-yl)-N-methylcarboxamide] | 6.20
5 | CNC(=O)[C@@]12CN[C@@H]([C@H](n3cnc4c(N)ncnc43)O1)[C@@H]2O [SPN0238, (1R,3R,4R,7S)-(7-hydroxy-3-(adenin-9-yl)-2-oxa-5-azabicyclo[2:2:1]hept-1-yl)-N-methylcarboxamide] | 6.76
6 | CNC(=O)[C@@]12CO[C@@H]([C@H](n3cnc4c(NCc5cccc(I)c5)ncnc43)O1)[C@@H]2N=[N+]=[N-] [SPN0192, (1S,3R,4R,7S)-(7-azido-3-(N6-(3-iodobenzyl)-adenin-9-yl)-2,5-dioxabicyclo[2:2:1]hept-1-yl)-N-methylcarboxamide] | 6.09
7 | OCC12CNC(C(n3cnc4c(NCc5cccc(I)c5)ncnc43)O1)C2O (single isomer, unassigned) [SPN0234] | 8.09
8 | CNC(=O)[C@@]12CN[C@@H]([C@H](n3cnc4c(NCc5cccc(I)c5)ncnc43)O1)[C@@H]2O [SPN0235, (1R,3R,4R,7S)-(7-hydroxy-3-(N6-(3-iodobenzyl)-adenin-9-yl)-2-oxa-5-azabicyclo[2:2:1]hept-1-yl)-N-methylcarboxamide] | 7.92
9 | OCC12CNC(C(n3cnc4c(NCc5cccc(I)c5)ncnc43)O1)C2O (single isomer, unassigned) [SPN0240] | 7.03
10 | CNC(=O)[C@@]12CO[C@@H]([C@H](n3cnc4c(NCc5cccc(I)c5)ncnc43)O1)[C@@H]2N [SPN0195, (1S,3R,4R,7S)-(7-amino-3-(N6-(3-iodobenzyl)-adenin-9-yl)-2,5-dioxabicyclo[2:2:1]hept-1-yl)-N-methylcarboxamide] | 6.17

Reference: patent publication US20100062994A1, “Adenosine Receptor Antagonists” (SANTARIS PHARMA A/S, priority 2006, published 2010)
